Data set [1] has as its system ATP level in BCG cultures. The data set is classed as cell-based, M. bovis BCG. The conditions noted are these: for ATP[M] levels, single time-point and time-course experiments: all time-points tested.
Data set [2] concerns mycolic acid synthesis in BCG. It counts as cell-based, M. bovis BCG. The conditions noted are these: BCG early log phase, 100 μg/ml, 10 minutes post exposure.
The test system of data set [3] is b-subunit and hsp homologs. Kind of data set: 2-dimensional protein profiles of OSA-treated M. smegmatis. It counts as cell-based. As to the method:
Protein assays: mycobacteria and cultures. Either DMSO (diluent), OSA. (6.25 and 100 μg/ml), cerulenin (24 μg/ml) or isoniazid (1.0 μg/ml) were added to 20 ml control and treated cultures, respectively. Following additional incubation for 24 hours under the same conditions, 2 ml aliquots of cells were harvested by centrifugation (13,000× g for 30 seconds), the supernatant removed, and the process repeated once using 1×PBS. The cellular contents of each tube were divided into 2 to 3 Eppendorfs (roughly 3 to 5 OD units per tube), and 250 μl of a lysis solution containing 3M urea (Sigma), 0.5% Triton X-100 (Sigma), […] dithiothreitol (DTT) (Gibco BRL, Life Technologies, Gaithersburg, Md.) and […] Pharmalyte (Pharmacia Biotech, Piscataway, N.J.) was added. Subsequently, phenylmethylsulfonyl fluoride (PMSF) (Sigma) (100 μg/ml) and leupeptin (2 μg/ml) (Sigma) were also added. Mixtures containing cells and lysis solution were beadbeaten at maximum speed for 60 seconds in a Biospec Mini-8 beadbeater using 200-300 μm glass beads (Sigma). This process was repeated twice per sample with 30-second intervals on ice between agitations. […] Protein concentration was determined using a standardized colorimetric assay (Coomassie Plus, Pierce, Rockford, Ill.) and BSA standards (Pierce) in a Shimadzu UC-1201 spectrophotometer. Quantitated samples were aliquoted and frozen at −70° C. […]

The subject of data set [4] is atpF (Rv1306) and hsp (Rv0251c). The data set is classed as cell-based, M. bovis BCG. The conditions noted are these: BCG treated overnight.
Another data set relates to M. tuberculosis H37Rv. The data set can be described thus: BACTEC radiometric growth procedure, activity in the presence of ethanol. It counts as cell-based, Mycobacterium tuberculosis (H37Rv). To be noted: for potentiation of growth inhibition by ethanol: 0.05% ethanol, M. tuberculosis; for MIC: Mycobacterium tuberculosis, H37RV, M. tuberculosis H37Rv, BACTEC.
A further data set has as its system BCG. Kind of data set: MIC in BCG. It counts as cell-based, M. bovis BCG. The conditions noted are these: Mycobacterium tuberculosis variant bovis BCG.
In data set [5] the test system is mycolic acid synthesis in BCG. To be noted: previously reported; cited from earlier work.
A further data set has as its system M. smegmatis. The conditions noted are these: concentrations up to 100 μg/ml; previously reported; cited from earlier work.
For data set [6] the following is noted: cited from earlier work.
The mark [7] stands for this setting: 5 minutes post-exposure, 16× MIC or stated inhibitor concentration.

The values that follow come from patent US20060135568A1, “Methods of treating microbial infections in humans and animals” (priority 2002, published 2006).

Values after ≈ are worked out from the molar mass of the structure shown. “Also recorded” adds a separate entry of the source. Like-named read-outs stand apart in the source and are kept apart here.

On to `C(=NC1CCCCC1)=NC1CCCCC1` [DCCD, dicyclohexylcarbodiimide], for which the “effect on ATP level versus untreated BCG” value in data set [1] (setting [7]) is reported as “statistically significant decrease”. The “decrease in ATP[M] level” value in data set [1] (BCG, 100 μg/ml, all timepoints (1, 3, 24 hours)) is given as 95%. The “ATP[M] levels, single time-point and time-course experiments” value in [1] (BCG) is recorded as “decreased significantly”. Moreover, in data set [2], the “decrease in total mycolic acid levels compared to untreated controls” value (from here on “decrease in total mycolic acid levels”) is recorded as 79%.

Take `CC[C@@H](CO)NCCN[C@@H](CC)CO` [EMB, ethambutol]: the “effect on ATP level versus untreated BCG” value in data set [1] (setting [7]) is “no appreciable difference”.

On to `NNC(=O)c1ccncc1` [INH, isoniazid], for which the “effect on ATP level versus untreated BCG” value in [1] (setting [7]) is listed as “no appreciable difference”.

The term MIC denotes the lowest concentration found to suppress growth. Regarding `CCCCCCCCS(=O)(=O)CC(N)=O` [OSA, n-octanesulfonylacetamide], the “overexpression of hsp and b-subunit homologs” value in data set [3] is given as “no proteins consistent with these molecular weights or pI's were overexpressed; also recorded: neither protein was overexpressed”. Moreover, the “level of hsp expression by RT-PCR” value in [4] is listed as “marked increase”. Further, in [1] (setting [7]), the “effect on ATP level versus untreated BCG” value is reported as “significantly decreased”. In addition, the “reduction in ATP[M] versus untreated controls” value in [1] (BCG, 100 μg/ml, 24 hours) worked out at 85%; in data set [1] (BCG, 100 μg/ml, three hours), 54%. Moreover, in data set [1] (BCG, 100 μg/ml, one hour post exposure), the “decrease in ATP[M] level versus untreated controls” value is reported as 46%. Besides, in data set [1] (BCG), the “ATP[M] levels, single time-point and time-course experiments” value is on record as “decreased significantly”. Further, the “potentiation of growth inhibition by ethanol” value in the data set with M. tuberculosis H37Rv was “potentiated”. Moreover, the MIC is less than 1.5 µg/mL in the data set on M. tuberculosis H37Rv (with 0.05% ethanol); 6.25 µg/mL with M. tuberculosis H37Rv (without ethanol, read-out: MIC); 6.25 µg/mL (≈ 26.6 µM) against BCG. Also, the “decrease in total mycolic acid levels” value in data set [2] stood at 43%. Also, the “mycolic acid levels in BCG” value in [5] was “decreased”. For the same compound, in the data set with M. smegmatis, the “susceptibility of M. smegmatis” value was “intrinsically resistant”. Also, the limit of solubility in data set [6] is 100 µg/mL.

Turning to `CO[C@H]1/C=C/O[C@@]2(C)Oc3c(C)c(O)c4c(O)c(c(/C=N/N5CCN(C)CC5)c(O)c4c3C2=O)NC(=O)/C(C)=C\C=C\[C@H](C)[C@H](O)[C@@H](C)[C@@H](O)[C@@H](C)[C@H](OC(C)=O)[C@@H]1C` [RIF, rifampin], the “effect on ATP level versus untreated BCG” value in [1] (setting [7]) is “no appreciable difference”.

With `[H]/N=C(/N)N[C@H]1[C@H](O)[C@@H](O)[C@H](O[C@@H]2O[C@@H](C)[C@](O)(C=O)[C@H]2O[C@@H]2O[C@@H](CO)[C@H](O)[C@@H](O)[C@@H]2NC)[C@@H](N/C(N)=N\[H])[C@@H]1O` [STR, streptomycin], the “effect on ATP level versus untreated BCG” value in [1] (setting [7]) is “no appreciable difference”. In the data set on M. tuberculosis H37Rv, the “potentiation of growth inhibition by ethanol” value is “No potentiation”.

As to `O=C(CC(=O)C(F)(F)F)c1cccs1` [TTFA, thenoyltrifluoroaceton], the “effect on ATP level versus untreated BCG” value in data set [1] (setting [7]) is given as “only a moderate decrease”. Besides, the “decrease in total mycolic acid levels” value in [2] came to 46%.

As for `C/C=C/C/C=C/CCC(=O)[C@H]1O[C@H]1C(N)=O` [cerulenin], the “effect on ATP level versus untreated BCG” value in data set [1] (setting [7]) is on record as “No appreciable decrease”.

`O=c1oc2ccccc2c(O)c1Cc1c(O)c2ccccc2oc1=O` [dicumarol]: in data set [1] (setting [7]), the “effect on ATP level versus untreated BCG” value is given as “No appreciable decrease”.

As for `C=C(C)[C@H]1Cc2c(ccc3c2O[C@@H]2COc4cc(OC)c(OC)cc4[C@@H]2C3=O)O1` [rotenone], in [1], the “effect on ATP level versus untreated BCG” value was “No appreciable decrease”.
